Patent publication US8192962B2, “Processes for detecting toxic substances” (Daikin Industries, Ltd., priority 2001, dated 2012)

Test system: Unknown protein yeast genes
Experiment: DNA chip mRNA expression in yeast, unknown protein yeast genes (Table 1)
Type: cell-based, Saccharomyces cerevisiae S288C
Procedure, shortened: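 Values are treated/untreated fluorescence ratios from a whole-genome yeast DNA chip hybridized over 12 hours at 65° C with Cy3- or Cy5-labelled cDNA from poly(A) mRNA. Log-phase S288C yeast in YPD at 25° C had received a single toxic chemical for two hours, dosed to slow growth without killing.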

## S=C([S-])NCCNC(=S)[S-].[Zn+2] [(11), zinc N,N′-ethylenebis(dithiocarbamate)]
Yeast gene YKL153W, incubated two hours with chemical substance
  The level of expressed mRNA in the presence of chemical substance/The level of expressed mRNA in the absence of chemical substance: 2.1
Yeast gene YKL195W, incubated two hours with chemical substance
  The level of expressed mRNA in the presence of chemical substance/The level of expressed mRNA in the absence of chemical substance: 1.0
Yeast gene YKR033C
  The level of expressed mRNA in the presence of chemical substance/The level of expressed mRNA in the absence of chemical substance: 0.3
Yeast gene YKR091W, incubated two hours with chemical substance
  The level of expressed mRNA in the presence of chemical substance/The level of expressed mRNA in the absence of chemical substance: 1.1
Yeast gene YLR054C, incubated two hours with chemical substance
  The level of expressed mRNA in the presence of chemical substance/The level of expressed mRNA in the absence of chemical substance: 0.7
Yeast gene YLR149C, incubated two hours with chemical substance
  The level of expressed mRNA in the presence of chemical substance/The level of expressed mRNA in the absence of chemical substance: 2.8
Yeast gene YLR152C, incubated two hours with chemical substance
  The level of expressed mRNA in the presence of chemical substance/The level of expressed mRNA in the absence of chemical substance: 3.6
Yeast gene YLR194C, incubated two hours with chemical substance
  The level of expressed mRNA in the presence of chemical substance/The level of expressed mRNA in the absence of chemical substance: 1.4
Yeast gene YLR324W, incubated two hours with chemical substance
  The level of expressed mRNA in the presence of chemical substance/The level of expressed mRNA in the absence of chemical substance: 0.9
Yeast gene YLR350W, incubated two hours with chemical substance
  The level of expressed mRNA in the presence of chemical substance/The level of expressed mRNA in the absence of chemical substance: 0.9
Yeast gene YLR387C, incubated two hours with chemical substance
  The level of expressed mRNA in the presence of chemical substance/The level of expressed mRNA in the absence of chemical substance: 0.9
Yeast gene YLR460C
  The level of expressed mRNA in the presence of chemical substance/The level of expressed mRNA in the absence of chemical substance: 14.3
Yeast gene YML117W, incubated two hours with chemical substance
  The level of expressed mRNA in the presence of chemical substance/The level of expressed mRNA in the absence of chemical substance: 0.8
Yeast gene YMR009W, incubated two hours with chemical substance
  The level of expressed mRNA in the presence of chemical substance/The level of expressed mRNA in the absence of chemical substance: 2.1
Yeast gene YMR067C, incubated two hours with chemical substance
  The level of expressed mRNA in the presence of chemical substance/The level of expressed mRNA in the absence of chemical substance: 1.1
Yeast gene YMR090W
  The level of expressed mRNA in the presence of chemical substance/The level of expressed mRNA in the absence of chemical substance: 8.8
Yeast gene YMR095C, incubated two hours with chemical substance
  The level of expressed mRNA in the presence of chemical substance/The level of expressed mRNA in the absence of chemical substance: 2.1
Yeast gene YMR097C, incubated two hours with chemical substance
  The level of expressed mRNA in the presence of chemical substance/The level of expressed mRNA in the absence of chemical substance: 1.5
Yeast gene YMR102C, incubated two hours with chemical substance
  The level of expressed mRNA in the presence of chemical substance/The level of expressed mRNA in the absence of chemical substance: 1.5
Yeast gene YMR107W, incubated two hours with chemical substance
  The level of expressed mRNA in the presence of chemical substance/The level of expressed mRNA in the absence of chemical substance: 3.0
Yeast gene YMR180C, incubated two hours with chemical substance
  The level of expressed mRNA in the presence of chemical substance/The level of expressed mRNA in the absence of chemical substance: 0.7
Yeast gene YMR184W, incubated two hours with chemical substance
  The level of expressed mRNA in the presence of chemical substance/The level of expressed mRNA in the absence of chemical substance: 1.5
Yeast gene YMR191W, incubated two hours with chemical substance
  The level of expressed mRNA in the presence of chemical substance/The level of expressed mRNA in the absence of chemical substance: 2.3
Yeast gene YMR295C, incubated two hours with chemical substance
  The level of expressed mRNA in the presence of chemical substance/The level of expressed mRNA in the absence of chemical substance: 1.2
Yeast gene YMR316W, incubated two hours with chemical substance
  The level of expressed mRNA in the presence of chemical substance/The level of expressed mRNA in the absence of chemical substance: 1.5
Yeast gene YNL044W, incubated two hours with chemical substance
  The level of expressed mRNA in the presence of chemical substance/The level of expressed mRNA in the absence of chemical substance: 1.1
Yeast gene YNL074C, incubated two hours with chemical substance
  The level of expressed mRNA in the presence of chemical substance/The level of expressed mRNA in the absence of chemical substance: 1.3
Yeast gene YNL092W, incubated two hours with chemical substance
  The level of expressed mRNA in the presence of chemical substance/The level of expressed mRNA in the absence of chemical substance: 0.7
Yeast gene YNL115C, incubated two hours with chemical substance
  The level of expressed mRNA in the presence of chemical substance/The level of expressed mRNA in the absence of chemical substance: 1.1
Yeast gene YNL156C, incubated two hours with chemical substance
  The level of expressed mRNA in the presence of chemical substance/The level of expressed mRNA in the absence of chemical substance: 1.4
Yeast gene YNL234W, incubated two hours with chemical substance
  The level of expressed mRNA in the presence of chemical substance/The level of expressed mRNA in the absence of chemical substance: 1.3
Yeast gene YNL281W, incubated two hours with chemical substance
  The level of expressed mRNA in the presence of chemical substance/The level of expressed mRNA in the absence of chemical substance: 1.6
Yeast gene YNL305C, incubated two hours with chemical substance
  The level of expressed mRNA in the presence of chemical substance/The level of expressed mRNA in the absence of chemical substance: 1.8
Yeast gene YNR068C, incubated two hours with chemical substance
  The level of expressed mRNA in the presence of chemical substance/The level of expressed mRNA in the absence of chemical substance: 1.1
Yeast gene YOL032W, incubated two hours with chemical substance
  The level of expressed mRNA in the presence of chemical substance/The level of expressed mRNA in the absence of chemical substance: 1.4
Yeast gene YOL036W, incubated two hours with chemical substance
  The level of expressed mRNA in the presence of chemical substance/The level of expressed mRNA in the absence of chemical substance: 2.2
Yeast gene YOL047C, incubated two hours with chemical substance
  The level of expressed mRNA in the presence of chemical substance/The level of expressed mRNA in the absence of chemical substance: 0.9
Yeast gene YOL071W, incubated two hours with chemical substance
  The level of expressed mRNA in the presence of chemical substance/The level of expressed mRNA in the absence of chemical substance: 4.3
Yeast gene YOL082W, incubated two hours with chemical substance
  The level of expressed mRNA in the presence of chemical substance/The level of expressed mRNA in the absence of chemical substance: 1.6
Yeast gene YOL083W, incubated two hours with chemical substance
  The level of expressed mRNA in the presence of chemical substance/The level of expressed mRNA in the absence of chemical substance: 1.3
Yeast gene YOL117W, incubated two hours with chemical substance
  The level of expressed mRNA in the presence of chemical substance/The level of expressed mRNA in the absence of chemical substance: 1.0
Yeast gene YOL131W, incubated two hours with chemical substance
  The level of expressed mRNA in the presence of chemical substance/The level of expressed mRNA in the absence of chemical substance: 1.4
Yeast gene YOL150C
  The level of expressed mRNA in the presence of chemical substance/The level of expressed mRNA in the absence of chemical substance: 9.4
Yeast gene YOL162W, incubated two hours with chemical substance
  The level of expressed mRNA in the presence of chemical substance/The level of expressed mRNA in the absence of chemical substance: 4.3
Yeast gene YOR019W, incubated two hours with chemical substance
  The level of expressed mRNA in the presence of chemical substance/The level of expressed mRNA in the absence of chemical substance: 1.7
Yeast gene YOR197W, incubated two hours with chemical substance
  The level of expressed mRNA in the presence of chemical substance/The level of expressed mRNA in the absence of chemical substance: 1.0
Yeast gene YPL087W, incubated two hours with chemical substance
  The level of expressed mRNA in the presence of chemical substance/The level of expressed mRNA in the absence of chemical substance: 2.5
Yeast gene YPL196W, incubated two hours with chemical substance
  The level of expressed mRNA in the presence of chemical substance/The level of expressed mRNA in the absence of chemical substance: 1.7
Yeast gene YPL206C, incubated two hours with chemical substance
  The level of expressed mRNA in the presence of chemical substance/The level of expressed mRNA in the absence of chemical substance: 1.5
Yeast gene YPL222W, incubated two hours with chemical substance
  The level of expressed mRNA in the presence of chemical substance/The level of expressed mRNA in the absence of chemical substance: 1.2
Yeast gene YPR023C, incubated two hours with chemical substance
  The level of expressed mRNA in the presence of chemical substance/The level of expressed mRNA in the absence of chemical substance: 1.7
Yeast gene YPR151C, incubated two hours with chemical substance
  The level of expressed mRNA in the presence of chemical substance/The level of expressed mRNA in the absence of chemical substance: 1.4
